{"source": "patent US8637509B2", "about": "“Azaindazoles” (GlaxoSmithKline LLC, priority 2010, dated 2014)"}
{"target": "T1, EZH2 (Homo sapiens, UniProt Q15910)", "T1 construct": "GRITS37108", "T1 sequence (Q15910 whole entry)": "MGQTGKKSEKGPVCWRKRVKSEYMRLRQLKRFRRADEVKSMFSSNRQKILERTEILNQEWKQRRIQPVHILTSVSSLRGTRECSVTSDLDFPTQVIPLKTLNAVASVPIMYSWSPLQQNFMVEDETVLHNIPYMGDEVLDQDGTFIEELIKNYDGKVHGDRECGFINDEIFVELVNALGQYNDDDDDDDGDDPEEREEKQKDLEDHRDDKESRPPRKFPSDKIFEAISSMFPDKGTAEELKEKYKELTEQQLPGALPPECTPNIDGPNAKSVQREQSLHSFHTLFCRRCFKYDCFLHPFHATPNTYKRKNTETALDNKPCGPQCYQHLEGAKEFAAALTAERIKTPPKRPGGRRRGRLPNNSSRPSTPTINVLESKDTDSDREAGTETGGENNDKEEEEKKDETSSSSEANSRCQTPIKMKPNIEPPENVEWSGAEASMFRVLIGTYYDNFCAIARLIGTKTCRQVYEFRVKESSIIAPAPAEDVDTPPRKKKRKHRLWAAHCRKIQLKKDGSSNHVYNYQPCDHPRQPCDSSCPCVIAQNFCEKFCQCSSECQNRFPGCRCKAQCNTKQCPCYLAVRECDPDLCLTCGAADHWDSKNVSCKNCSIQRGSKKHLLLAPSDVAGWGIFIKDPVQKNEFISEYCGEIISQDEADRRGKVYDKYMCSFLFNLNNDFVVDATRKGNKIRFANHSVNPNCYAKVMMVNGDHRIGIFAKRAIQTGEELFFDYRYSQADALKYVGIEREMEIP", "T1 sequence (O75530 whole entry partner)": "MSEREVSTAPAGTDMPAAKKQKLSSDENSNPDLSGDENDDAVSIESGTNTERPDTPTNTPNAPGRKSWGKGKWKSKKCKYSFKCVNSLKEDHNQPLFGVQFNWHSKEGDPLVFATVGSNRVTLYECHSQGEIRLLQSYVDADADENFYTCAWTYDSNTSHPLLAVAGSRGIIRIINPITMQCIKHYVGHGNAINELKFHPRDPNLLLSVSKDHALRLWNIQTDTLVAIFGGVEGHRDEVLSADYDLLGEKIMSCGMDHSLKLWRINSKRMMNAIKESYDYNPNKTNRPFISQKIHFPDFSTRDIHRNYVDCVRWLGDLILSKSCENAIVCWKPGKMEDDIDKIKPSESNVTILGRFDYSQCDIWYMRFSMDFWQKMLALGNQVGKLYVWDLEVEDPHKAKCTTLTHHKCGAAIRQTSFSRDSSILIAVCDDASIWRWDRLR", "T1 sequence (Q15022 whole entry partner)": "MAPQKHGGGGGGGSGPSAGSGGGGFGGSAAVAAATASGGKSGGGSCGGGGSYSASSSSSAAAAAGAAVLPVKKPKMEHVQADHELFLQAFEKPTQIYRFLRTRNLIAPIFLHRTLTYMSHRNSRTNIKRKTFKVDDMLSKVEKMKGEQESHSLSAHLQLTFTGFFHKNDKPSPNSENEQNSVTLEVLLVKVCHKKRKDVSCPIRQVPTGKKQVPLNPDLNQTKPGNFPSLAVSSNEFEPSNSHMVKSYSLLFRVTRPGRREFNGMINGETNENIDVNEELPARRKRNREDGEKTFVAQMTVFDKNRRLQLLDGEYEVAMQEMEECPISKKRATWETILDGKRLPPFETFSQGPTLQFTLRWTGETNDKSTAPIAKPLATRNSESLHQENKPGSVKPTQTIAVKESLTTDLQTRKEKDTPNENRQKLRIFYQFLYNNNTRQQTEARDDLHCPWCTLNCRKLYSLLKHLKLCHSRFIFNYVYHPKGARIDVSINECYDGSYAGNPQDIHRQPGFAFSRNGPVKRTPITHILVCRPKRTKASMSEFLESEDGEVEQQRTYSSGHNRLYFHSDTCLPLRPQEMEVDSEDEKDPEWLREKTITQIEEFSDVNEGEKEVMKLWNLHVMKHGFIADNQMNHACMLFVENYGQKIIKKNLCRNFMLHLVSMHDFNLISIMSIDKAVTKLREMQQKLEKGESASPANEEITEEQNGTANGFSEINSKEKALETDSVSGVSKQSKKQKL", "assay": "EZH2 methyltransferase SPA assay (3H-SAM, Hela nucleosomes)", "type": "biochemical", "details": "not given", "units": {"IC50": "nM"}}
{"compound": "CCCc1cc(C)[nH]c(=O)c1CNC(=O)c1cc(-c2ccncc2)nc2c1cnn2C(C)C", "note": "[Ex 11, 1-(1-Methylethyl)-N-[(6-methyl-2-oxo-4-propyl-1,2-dihydro-3-pyridinyl)methyl]-6-(4-pyridinyl)-1H-pyrazolo[3,4-b]pyridine-4-carboxamide]", "IC50": 18}
{"compound": "Cc1[nH]c(=O)c(CNC(=O)c2cc(-c3ccncc3)nc3c2cnn3C(C)C)c(C)c1F", "note": "[Ex 20, N-[(5-Fluoro-4,6-dimethyl-2-oxo-1,2-dihydro-3-pyridinyl)methyl]-1-(1-methylethyl)-6-(4-pyridinyl]-1H-pyrazolo[3,4-b]pyridine-4-carboxamide]", "IC50": 4650}
{"target": "T1, EZH2", "assay": "EZH2 methyltransferase SPA assay (3H-SAM, Hela nucleosomes)", "type": "biochemical", "details": "10 nM EZH2, 7 μg/ml Hela nucleosomes, 2-parameter IC50 fit; single-point-in-time values; read-out: IC50", "units": {"IC50": "nM"}}
{"compound": "6-{[4-(Aminocarbonyl)phenyl]amino}-N-[(4,6-dimethyl-2-oxo-1,2-dihydro-3-pyridinyl)methyl]-1-(1-methylethyl)-1H-pyrazolo[3,4-b]pyridine-4-carboxamide [Ex 86]", "IC50": 142}
{"target": "T1, EZH2", "assay": "EZH2 methyltransferase SPA assay (3H-SAM, Hela nucleosomes)", "type": "biochemical", "details": "read-out: IC50", "units": {"IC50": "nM"}}
{"compound": "Cc1cc(C)c(CNC(=O)c2cc(Cl)nc3c2cnn3C(C)C)c(=O)[nH]1", "note": "[Ex 1, 6-Chloro-N-[(4,6-dimethyl-2-oxo-1,2-dihydro-3-pyridinyl)methyl]-1-(1-methylethyl)-1H-pyrazolo[3,4-b]pyridine-4-carboxamide]", "IC50": 475}
{"compound": "Cc1cc(C)c(CNC(=O)c2cc(Cl)nc3c2c(C)nn3C(C)C)c(=O)[nH]1", "note": "[Ex 2, 6-Chloro-N-[(4,6-dimethyl-2-oxo-1,2-dihydro-3-pyridinyl)methyl]-3-methyl-1-(1-methylethyl)-1H-pyrazolo[3,4-b]pyridine-4-carboxamide]", "IC50": 806}
{"compound": "Cc1cc(C)c(CNC(=O)c2cc(Oc3ccncc3)nc3c2cnn3C(C)C)c(=O)[nH]1", "note": "[Ex 4, N-[(4,6-Dimethyl-2-oxo-1,2-dihydro-3-pyridinyl)methyl]-1-(1-methylethyl)-6-(4-pyridinyloxy)-1H-pyrazolo[3,4-b]pyridine-4-carboxamide]", "IC50": 116}
{"compound": "C=CCNc1cc(C(=O)NCc2c(C)cc(C)[nH]c2=O)c2cnn(C(C)C)c2n1", "note": "[Ex 5, N-[(4,6-Dimethyl-2-oxo-1,2-dihydro-3-pyridinyl)methyl]-1-(1-methylethyl)-6-(2-propen-1-ylamino)-1H-pyrazolo[3,4-b]pyridine-4-carboxamide]", "IC50": 705}
{"compound": "Cc1cc(C)c(CNC(=O)c2cc(N)nc3c2cnn3C(C)C)c(=O)[nH]1", "note": "[Ex 6, 6-Amino-N-[(4,6-dimethyl-2-oxo-1,2-dihydro-3-pyridinyl)methyl]-1-(1-methylethyl)-1H-pyrazolo[3,4-b]pyridine-4-carboxamide]", "IC50": 695}
{"compound": "CCCc1cc(C)c(CNC(=O)c2cc(C3CC3)nc3c2cnn3C(C)C)c(=O)[nH]1", "note": "[Ex 7, 6-Cyclopropyl-1-(1-methylethyl)-N-[(4-methyl-2-oxo-6-propyl-1,2-dihydro-3-pyridinyl)methyl]-1H-pyrazolo[3,4-b]pyridine-4-carboxamide]", "IC50": 1300}
{"compound": "Cc1cc(C(C)C)c(CNC(=O)c2cc(C3CC3)nc3c2cnn3C(C)C)c(=O)[nH]1", "note": "[Ex 8, 6-Cyclopropyl-1-(1-methylethyl)-N-{[6-methyl-4-(1-methylethyl)-2-oxo-1,2-dihydro-3-pyridinyl]methyl}-1H-pyrazolo[3,4-b]pyridine-4-carboxamide]", "IC50": 167}
{"compound": "CCCc1cc(C)c(CNC(=O)c2cc(-c3ccncc3)nc3c2cnn3C(C)C)c(=O)[nH]1", "note": "[Ex 9, 1-(1-Methylethyl)-N-[(4-methyl-2-oxo-6-propyl-1,2-dihydro-3-pyridinyl)methyl]-6-(4-pyridinyl)-1H-pyrazolo[3,4-b]pyridine-4-carboxamide]", "IC50": 1310}
{"compound": "CCc1cc(C)c(CNC(=O)c2cc(-c3ccncc3)nc3c2cnn3C(C)C)c(=O)[nH]1", "note": "[Ex 10, N-[(6-Ethyl-4-methyl-2-oxo-1,2-dihydro-3-pyridinyl)methyl]-1-(1-methylethyl)-6-(4-pyridinyl)-1H-pyrazolo[3,4-b]pyridine-4-carboxamide]", "IC50": 569}
{"compound": "Cc1cc(C(C)C)c(CNC(=O)c2cc(-c3ccncc3)nc3c2cnn3C(C)C)c(=O)[nH]1", "note": "[Ex 12, 1-(1-Methylethyl)-N-{[6-methyl-4-(1-methylethyl)-2-oxo-1,2-dihydro-3-pyridinyl]methyl}-6-(4-pyridinyl)-1H-pyrazolo[3,4-b]pyridine-4-carboxamide]", "IC50": 55}
{"compound": "CCCc1cc(C)[nH]c(=O)c1CNC(=O)c1cc(C2CC2)nc2c1cnn2C(C)C", "note": "[Ex 13, 6-Cyclopropyl-1-(1-methylethyl)-N-[(6-methyl-2-oxo-4-propyl-1,2-dihydro-3-pyridinyl)methyl]-1H-pyrazolo[3,4-b]pyridine-4-carboxamide]", "IC50": 55}
{"compound": "Cc1cc(-c2ccccc2)c(CNC(=O)c2cc(-c3ccncc3)nc3c2cnn3C(C)C)c(=O)[nH]1", "note": "[Ex 14, 1-(1-Methylethyl)-N-[(6-methyl-2-oxo-4-phenyl-1,2-dihydro-3-pyridinyl)methyl]-6-(4-pyridinyl)-1H-pyrazolo[3,4-b]pyridine-4-carboxamide]", "IC50": 735}
{"compound": "Cc1cc(C2CCCCC2)c(CNC(=O)c2cc(-c3ccncc3)nc3c2cnn3C(C)C)c(=O)[nH]1", "note": "[Ex 15, N-[(4-Cyclohexyl-6-methyl-2-oxo-1,2-dihydro-3-pyridinyl)methyl]-1-(1-methylethyl)-6-(4-pyridinyl)-1H-pyrazolo[3,4-b]pyridine-4-carboxamide]", "IC50": 179}
{"compound": "Cc1cc(C2CCCCC2)c(CNC(=O)c2cc(C3CC3)nc3c2cnn3C(C)C)c(=O)[nH]1", "note": "[Ex 16, N-[(4-Cyclohexyl-6-methyl-2-oxo-1,2-dihydro-3-pyridinyl)methyl]-6-cyclopropyl-1-(1-methylethyl)-1H-pyrazolo[3,4-b]pyridine-4-carboxamide]", "IC50": 105}
{"compound": "Cc1cc(-c2ccccc2)c(CNC(=O)c2cc(C3CC3)nc3c2cnn3C(C)C)c(=O)[nH]1", "note": "[Ex 17, 6-Cyclopropyl-1-(1-methylethyl)-N-[(6-methyl-2-oxo-4-phenyl-1,2-dihydro-3-pyridinyl)methyl]-1H-pyrazolo[3,4-b]pyridine-4-carboxamide]", "IC50": 2590}
{"compound": "Cc1cc(C2CC2)c(CNC(=O)c2cc(-c3ccncc3)nc3c2cnn3C(C)C)c(=O)[nH]1", "note": "[Ex 18, N-[(4-Cyclopropyl-6-methyl-2-oxo-1,2-dihydro-3-pyridinyl)methyl]-1-(1-methylethyl)-6-(4-pyridinyl)-1H-pyrazolo[3,4-b]pyridine-4-carboxamide]", "IC50": 40}
{"compound": "Cc1cc(C2CC2)[nH]c(=O)c1CNC(=O)c1cc(C2CC2)nc2c1cnn2C(C)C", "note": "[Ex 19, 6-Cyclopropyl-N-[(6-cyclopropyl-4-methyl-2-oxo-1,2-dihydro-3-pyridinyl)methyl]-1-(1-methylethyl)-1H-pyrazolo[3,4-b]pyridine-4-carboxamide]", "IC50": 3370}
{"compound": "CCNc1cc(C(=O)NCc2c(C)cc(C)[nH]c2=O)c2cnn(C(C)C)c2n1", "note": "[Ex 21, N-[(4,6-Dimethyl-2-oxo-1,2-dihydro-3-pyridinyl)methyl]-6-(ethylamino)-1-(1-methylethyl)-1H-pyrazolo[3,4-b]pyridine-4-carboxamide]", "IC50": 1040}
{"compound": "Cc1cc(C)c(CNC(=O)c2ccnc3c2cnn3C(C)C)c(=O)[nH]1", "note": "[Ex 22, N-[(4,6-Dimethyl-2-oxo-1,2-dihydro-3-pyridinyl)methyl]-1-(1-methylethyl)-1H-pyrazolo[3,4-b]pyridine-4-carboxamide]", "IC50": 1360}
{"compound": "Cc1cc(C(F)(F)F)c(CNC(=O)c2cc(C3CC3)nc3c2cnn3C(C)C)c(=O)[nH]1", "note": "[Ex 23, 6-Cyclopropyl-1-(1-methylethyl)-N-{[6-methyl-2-oxo-4-(trifluoromethyl)-1,2-dihydro-3-pyridinyl]methyl}-1H-pyrazolo[3,4-b]pyridine-4-carboxamide]", "IC50": 1430}
{"compound": "Cc1cc(C)c(CNC(=O)c2cc(N(C)C)nc3c2cnn3C(C)C)c(=O)[nH]1", "note": "[Ex 24, 6-(Dimethylamino)-N-[(4,6-dimethyl-2-oxo-1,2-dihydro-3-pyridinyl)methyl]-1-(1-methylethyl)-1H-pyrazolo[3,4-b]pyridine-4-carboxamide]", "IC50": 873}
{"compound": "Cc1cc(C)c(CNC(=O)c2cc(N3CCCCC3)nc3c2cnn3C(C)C)c(=O)[nH]1", "note": "[Ex 25, N-[(4,6-Dimethyl-2-oxo-1,2-dihydro-3-pyridinyl)methyl]-1-(1-methylethyl)-6-(1-piperidinyl)-1H-pyrazolo[3,4-b]pyridine-4-carboxamide]", "IC50": 685}
{"compound": "Cc1cc(C)c(CNC(=O)c2cc(N3CCOCC3)nc3c2cnn3C(C)C)c(=O)[nH]1", "note": "[Ex 26, N-[(4,6-Dimethyl-2-oxo-1,2-dihydro-3-pyridinyl)methyl]-1-(1-methylethyl)-6-(4-morpholinyl)-1H-pyrazolo[3,4-b]pyridine-4-carboxamide]", "IC50": 673}
{"compound": "Cc1cc(C)c(CNC(=O)c2cc(-c3ccc(N4CCN(C)CC4)nc3)nc3c2c(C)nn3C(C)C)c(=O)[nH]1", "note": "[Ex 27, N-[(4,6-Dimethyl-2-oxo-1,2-dihydro-3-pyridinyl)methyl]-3-methyl-1-(1-methylethyl)-6-[6-(4-methyl-1-piperazinyl)-3-pyridinyl]-1H-pyrazolo[3,4-b]pyridine-4-carboxamide]", "IC50": 24}
{"compound": "Cc1cc(C)c(CNC(=O)c2cc(N3CCNCC3)nc3c2cnn3C(C)C)c(=O)[nH]1", "note": "[Ex 28, N-[(4,6-Dimethyl-2-oxo-1,2-dihydro-3-pyridinyl)methyl]-1-(1-methylethyl)-6-(1-piperazinyl)-1H-pyrazolo[3,4-b]pyridine-4-carboxamide]", "IC50": 348}
{"compound": "Cc1cc(C)c(CNC(=O)c2cc(C#CC(C)(C)O)nc3c2cnn3C(C)C)c(=O)[nH]1", "note": "[Ex 29, N-[(4,6-Dimethyl-2-oxo-1,2-dihydro-3-pyridinyl)methyl]-6-(3-hydroxy-3-methyl-1-butyn-1-yl)-1-(1-methylethyl)-1H-pyrazolo[3,4-b]pyridine-4-carboxamide]", "IC50": 234}
{"compound": "Cc1cc(C)c(CNC(=O)c2cc(-c3ccc4[nH]nc(C)c4c3)nc3c2cnn3C(C)C)c(=O)[nH]1", "note": "[Ex 30, N-[(4,6-Dimethyl-2-oxo-1,2-dihydro-3-pyridinyl)methyl]-1-(1-methylethyl)-6-(3-methyl-1H-indazol-5-yl)-1H-pyrazolo[3,4-b]pyridine-4-carboxamide]", "IC50": 154}
{"compound": "Cc1cc(C)c(CNC(=O)c2cc(C#Cc3ccccc3)nc3c2cnn3C(C)C)c(=O)[nH]1", "note": "[Ex 31, N-[(4,6-Dimethyl-2-oxo-1,2-dihydro-3-pyridinyl)methyl]-1-(1-methylethyl)-6-(phenylethynyl)-1H-pyrazolo[3,4-b]pyridine-4-carboxamide]", "IC50": 232}
